# Literature values as cited in patent publication EP1190712A1 (SMB Technology, priority 2000, dated 2002).
# Conditions: human, in vivo
compound,measurement,value
COc1cccc(C2(O)CCCCC2CN(C)C)c1 (stereo not shown) [Tramadol],Cmax (time),30 to 60 min
